Assay results: the supplement of paper PMC10307832

Experiments:
Assay in all cases: relative viability (nuclei count vs DMSO), 5 days (fraction); higher = more cells survive
XMD13-2 + Navitoclax = compound: C1CC1C(=O)NC2=NNC3=C2C=CC(=C3)C4=CC(=CC=C4)C(=O)NC5CC5 [XMD13-2] + CC1(C)CCC(c2ccc(Cl)cc2)=C(CN2CCN(c3ccc(C(=O)NS(=O)(=O)c4ccc(N[C@H](CCN5CCOCC5)CSc5ccccc5)c(S(=O)(=O)C(F)(F)F)c4)cc3)CC2)C1 [Navitoclax] (partner 0.5 µM)
Summary of the method: (§1)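 Relative viability divides the nuclei count in treated wells by that in vehicle wells. Lung cancer cell lines were seeded in 1536-well plates, dosed by pin tool the next day, and fixed and stained after 5 days in one step with final 0.05% Triton X-100, 1% formaldehyde and 1 ug/ml Hoechst. Dosing was a single drug or a fixed anchor-drug dose plus five library-drug doses (not always all listed) in √10 steps, and values are medians of duplicate plates imaged at 4×.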

XMD13-2 + OSI-027 = compound: C1CC1C(=O)NC2=NNC3=C2C=CC(=C3)C4=CC(=CC=C4)C(=O)NC5CC5 [XMD13-2] + COc1cccc2cc(-c3nc([C@H]4CC[C@H](C(=O)O)CC4)n4ncnc(N)c34)[nH]c12 [OSI-027] (partner 0.5 µM)
Summary of the method: as §1

ALW-II-49-7 + Alpelisib = compound: Cc1ccc(C(=O)Nc2cccc(C(F)(F)F)c2)cc1Nc1cncc(C(N)=O)c1 [ALW-II-49-7] + Cc1nc(NC(=O)N2CCC[C@H]2C(N)=O)sc1-c1ccnc(C(C)(C)C(F)(F)F)c1 [Alpelisib] (partner 2 µM)
Summary of the method: as §1

ALW-II-49-7 + Pemetrexed = compound: Cc1ccc(C(=O)Nc2cccc(C(F)(F)F)c2)cc1Nc1cncc(C(N)=O)c1 [ALW-II-49-7] + Nc1nc2[nH]cc(CCc3ccc(C(=O)N[C@@H](CCC(=O)O)C(=O)O)cc3)c2c(=O)[nH]1 [Pemetrexed] (partner 0.2 µM)
Summary of the method: as §1

Row | Cell Line | relative viability (XMD13-2 + Navitoclax; first compound 0.05 µM) | relative viability (XMD13-2 + Navitoclax; first compound 0.1581 µM) | relative viability (XMD13-2 + Navitoclax; first compound 0.5 µM) | relative viability (XMD13-2 + Navitoclax; first compound 1.581 µM) | relative viability (XMD13-2 + Navitoclax; first compound 5 µM) | relative viability (XMD13-2 + OSI-027; first compound 0.05 µM) | relative viability (XMD13-2 + OSI-027; first compound 0.1581 µM) | relative viability (XMD13-2 + OSI-027; first compound 0.5 µM) | relative viability (XMD13-2 + OSI-027; first compound 1.581 µM) | relative viability (XMD13-2 + OSI-027; first compound 5 µM) | relative viability (ALW-II-49-7 + Alpelisib; first compound 0.08 µM) | relative viability (ALW-II-49-7 + Alpelisib; first compound 0.253 µM) | relative viability (ALW-II-49-7 + Alpelisib; first compound 0.8 µM) | relative viability (ALW-II-49-7 + Alpelisib; first compound 2.53 µM) | relative viability (ALW-II-49-7 + Alpelisib; first compound 8 µM) | relative viability (ALW-II-49-7 + Pemetrexed; first compound 0.08 µM) | relative viability (ALW-II-49-7 + Pemetrexed; first compound 0.253 µM) | relative viability (ALW-II-49-7 + Pemetrexed; first compound 0.8 µM) | relative viability (ALW-II-49-7 + Pemetrexed; first compound 2.53 µM) | relative viability (ALW-II-49-7 + Pemetrexed; first compound 8 µM)
1 | 201T | 1.22 | 1.25 | 1.2 | 1.19 | 1.29 | 0.95 | 0.731 | 0.854 | 0.701 | 0.723 | 1 | 1.02 | 1.02 | 0.992 | 1.02 | 0.321 | 0.365 | 0.287 | 0.346 | 0.381
2 | A549 | 1.53 | 1.23 | 1.13 | 1.16 | 1.17 | – | – | – | – | – | 0.82 | 0.756 | 0.728 | 0.802 | 0.712 | – | – | – | – | –
3 | A-427 | 1.01 | 0.961 | 1.09 | 0.87 | 0.989 | 0.462 | 0.354 | 0.489 | 0.444 | 0.355 | 1.25 | 1.06 | 1.13 | 1.21 | 1.12 | 0.982 | 1.11 | 0.926 | 1.02 | 1.06
4 | ABC-1 | – | – | – | – | – | 0.693 | 0.486 | 0.572 | 0.427 | 0.368 | 0.945 | 0.937 | 1.06 | 0.967 | 0.973 | – | – | – | – | –
5 | BEN | 0.186 | 0.0776 | 0.0786 | 0.0451 | 0.0694 | 0.309 | 0.276 | 0.312 | 0.291 | 0.327 | 0.993 | 0.93 | 0.936 | – | 1.17 | 0.8 | 0.88 | 0.757 | 0.902 | 0.81
6 | CAL-12T | 1.41 | 1.06 | 1 | 1.18 | 1.24 | 0.803 | 0.585 | 0.549 | 0.426 | 0.577 | 1.26 | 1.14 | 1.2 | 1.21 | 1.26 | 1.16 | 1.3 | 1.27 | 1.25 | 0.749
7 | COR-L23 | 1.03 | 1.07 | 1.18 | 1.11 | 0.899 | 0.915 | 0.78 | 0.838 | 0.711 | 0.864 | 0.756 | 0.536 | 0.741 | 0.898 | 0.667 | 0.198 | 0.208 | 0.206 | 0.204 | 0.177
8 | COR-L 105 | 0.818 | 0.761 | 1.25 | 0.684 | 0.872 | 0.83 | 0.658 | 0.668 | 0.66 | 0.707 | 1.14 | 1.03 | 0.894 | 0.93 | 0.943 | 1.16 | 1.06 | 1.21 | 0.959 | 0.974
9 | Calu-6 | 0.915 | 0.829 | 0.808 | 0.776 | 0.548 | – | – | – | – | – | 1.04 | 0.984 | 0.95 | 0.91 | 0.791 | – | – | – | – | –
10 | ChaGo-K-1 | 1.06 | 0.882 | 0.799 | – | 0.942 | 0.642 | 0.545 | 0.597 | 0.542 | 0.497 | – | – | – | – | – | 0.266 | 0.274 | 0.263 | 0.268 | 0.262
11 | EBC-1 | 0.563 | 0.375 | 0.404 | 0.232 | 0.176 | – | – | – | – | – | 0.791 | 0.783 | 0.731 | 0.644 | 0.522 | – | – | – | – | –
12 | EKVX | 1.17 | 0.869 | 0.859 | 0.973 | 0.997 | 0.832 | 0.68 | 0.78 | 0.682 | 0.863 | 0.929 | 0.78 | 0.868 | 0.685 | 0.802 | 0.396 | 0.323 | 0.405 | 0.336 | 0.414
13 | EMC-BAC-2 | 1.29 | 1.22 | 1.21 | 1.18 | 1.27 | 0.394 | 0.4 | 0.383 | 0.366 | 0.358 | 0.843 | 0.703 | 0.758 | 0.715 | 0.645 | 0.448 | 0.455 | 0.409 | 0.456 | 0.403
14 | EPLC-272H | 1.23 | 1.13 | 1.26 | 0.814 | 0.649 | 0.313 | 0.257 | 0.281 | 0.238 | 0.247 | 0.92 | 0.879 | 1.02 | 1.08 | 1.06 | 0.315 | 0.382 | 0.289 | 0.34 | 0.206
15 | H3255 | 0.709 | 0.564 | 0.518 | 0.444 | 0.526 | 0.705 | 0.536 | 0.589 | 0.564 | 0.549 | 0.828 | 0.743 | 0.73 | 0.403 | 0.511 | 0.623 | 0.579 | 0.576 | 0.566 | 0.489
16 | HARA | 1.1 | 1.08 | 1.16 | 1.13 | 1.14 | 0.661 | 0.438 | 0.43 | 0.446 | 0.636 | 0.904 | 0.883 | 0.844 | 0.834 | 0.987 | 0.235 | 0.288 | 0.247 | 0.277 | 0.218
